As a reminder, the IC50 is the concentration that inhibits the measured activity by half.

In one assay the test system is HT-29 human colon cancer cells. Description: MTT cell growth inhibition, HT-29. The assay is classed as cell-based. The note with it: Homo sapiens; HT-29, 24 h (Table 5); in combinations the IC50 of ASA with fixed concentrations of SNAP and/or ADT-OH; read-out: IC50 at 24 hours for HT-29 cell growth inhibition. Here is the method:
HT-29, SW-480 and HCT-15 human colon adenocarcinoma, MIA PaCa-2 and BxPC-3 human pancreatic cancer, LNCAP human prostate cancer, A549 human lung cancer, MCF-7 (estrogen receptor positive), MDA-MB 231 and SK-BR-3 (estrogen receptor negative) human breast cancer, and Jurkats human leukemia cell lines were obtained from American Type Tissue Collection (Manassas, Va.). All cells lines were grown as monolayers except for the Jurkats which were grown in suspension. The pancreatic and breast cancer cells were grown in Dulbecco's modified Eagle's medium, the prostate, Jurkat, SW-480 and HCT-15 colon cells were grown in RPMI 1640 medium, the lung cells were grown in F-12 and the colon HT-29 cells were grown in McCoy 5A. All media were supplemented with 10% fetal calf serum (Invitrogen, Carlsbad, Calif.) penicillin (50 U/ml), and streptomycin (50 μg/ml) (Invitrogen, Carlsbad, Calif.). Cells were seeded on culture dishes at a density of 25×10^3 cells/cm^2 and incubated at 37° C. in 5% CO2 and 90% relative humidity. Single cell suspensions were obtained by trypsinization (0.05% trypsin/EDTA), and cells were counted using a hemocytometer. Viability was determined by the trypan blue dye exclusion method.
Cell growth inhibitory effect of NOSH compounds were measured using a colorimetric MTT assay kit (Roche, Indianapolis, Ind.). Cancer cells were plated in 96-well plates at a density of 50,000 cells/well. The cells were incubated for 24 h with different concentrations of NOSH compounds. After the indicated time, 10 μl of MTT dye (3-[4,5-dimethylthiazol-2-yl]-2,5-diphenyl tetrazolium bromide, 5 mg/ml in phosphate buffered saline), was added to each well, and the plates were incubated for 2 hours at 37° C. Then, the media was aspirated, and add 100 μl of the solubilization solution (10% SDS in 0.01 M HCl) was added to each well to solubilize the formant crystals. The absorbance of the plates was measured on an ELISA reader at a wavelength of 570 nm. Each sample was performed in triplicate, and the entire experiment was repeated three times.
HT-29 human colon cancer cells were obtained from American Type Tissue Collection (Manassas, Va.) and grown as monolayer in McCoy 5A media that was supplemented with 10% fetal calf serum (Invitrogen, Carlsbad, Ca.), penicillin (50 U/ml), and streptomycin (50 μg/ml) (Invitrogen, Carlsbad, Calif.).
Growth inhibition was measured using a colorimetric MTT assay kit (Roche, Indianapolis, Ind.). Proliferation (PCNA) was assessed using an ELISA kit from Calbiochem, (La Jolla, Calif.). Cell cycle phase distributions and apoptosis of control and treated cells were determined as previously described. All methods are described in Chattopadhyay et al., Biochemical Pharmacology, 2012, 83(6), 715-722.
HT-29, SW-480 and HCT-15 human colon adenocarcinoma, MIA PaCa-2 and BxPC-3 human pancreatic cancer, LNCAP human prostate cancer, A549 and H383 human lung cancer, MCF-7, MDA-MB 231 and SK-BR-3 human breast cancer and Jurkat T cell human leukemia cell lines were obtained from American Type Tissue Collection (Manassas, Va.) All cells lines were grown as monolayers except for the Jurkat T cells which were grown as suspension culture. The pancreatic and breast cancer cells were grown in Dulbecco's modified Eagle's medium, the prostate, Jurkat, SW-480 and HCT-15 colon cells were grown in RPMI 1640 medium, the lung cells were grown in F-12 and the colon HT-29 cells were grown in McCoy 5A. All media were supplemented with 10% fetal calf serum (Invitrogen, Carlsbad, Calif.) penicillin (50 U/ml), and streptomycin (50 μg/ml) (Invitrogen, Carlsbad, Calif.). Cells were seeded on culture dishes at a density of 25×10^3 cells/cm^2 and incubated at 37° C. in 5% CO2 and 90% relative humidity. Single cell suspensions were obtained by trypsinization (0.05% trypsin/EDTA), and cells were counted using a hemacytometer. The final DMSO concentration was adjusted in all media to 1%. Viability was determined by the trypan blue dye exclusion method. […]
Regarding `Oc1ccc(-c2cc(=S)ss2)cc1` [ADT-OH, 5-(4-hydroxyphenyl)-3H-1,2-dithiole-3-thione, reference compound], the IC50 came out at 26 ± 3 µM.

Consider `CC(=O)N[C@H](C(=O)O)C(C)(C)SN=O` [SNAP, S-nitroso-N-acetyl-penicillamine, reference compound], for which the IC50 was found to be 530 ± 45 µM.

The same assay, now with this note: Homo sapiens; HT-29 colon cancer cells, 24 hours (Table 3); read-out: IC50 at 24 hours for cell growth inhibition.
In the case of `CC(=O)Oc1ccccc1C(=O)OCCCOO[N+](=O)[O-]` [aliphatic-NO-ASA, 3-(nitroperoxy)propyl 2-acetoxybenzoate, reference compound], the IC50 stood at 750 ± 35 µM. On the same count and under the same terms, the figure for `CC(=O)Oc1ccccc1C(=O)Oc1ccccc1CO[N+](=O)[O-]` [o-NO-ASA, 2-(acetyloxy)benzoic acid 2-(nitrooxymethyl)phenyl ester, reference compound] is 8 ± 3 µM; for `CC(=O)Oc1ccccc1C(=O)Oc1ccc(-c2cc(=S)ss2)cc1` [HS-ASA, 4-(5-thioxo-5H-1,2-dithiol-3-yl)-phenyl 2-acetoxybenzoate, reference compound] it is 4 ± 0.5 µM.

Turning to `CC(=O)Oc1ccccc1C(=O)Oc1cccc(CO[N+](=O)[O-])c1` [m-NO-ASA, 2-(acetyloxy)benzoic acid 3-(nitrooxymethyl)phenyl ester, reference compound], the 50% inhibitory concentration (IC50) amounted to 185 ± 15 µM. In the case of `CC(=O)Oc1ccccc1C(=O)Oc1ccc(CO[N+](=O)[O-])cc1` [p-NO-ASA, 2-(acetyloxy)benzoic acid 4-(nitrooxymethyl)phenyl ester, reference compound], the 50% inhibitory concentration (IC50) was determined as 10 ± 2 µM.
